Like-named read-outs stand apart in the source and are kept apart here.
Assays:
[1] = system: systemic sclerosis patients; conditions: scleroderma patients (Seibold et al. 2000); cited from earlier work
healthy volunteers = conditions: cited from earlier work
[2] = system: patients with chronic and stable compensated congestive HF; experiment: Open-label pilot study of IV recombinant relaxin over 24 hours in chronic heart failure patients; type: in vivo, human; conditions: for CI Change from baseline / CO Change from baseline / DBP Change from baseline / HR Change from baseline / PAP Change from baseline / PCWP Change from baseline / PVR Change from baseline / RAP Change from baseline / SBP Change from baseline / SVR Change from baseline: mean ± SD
Protocol: Overview. In this open-label study 16 patients with chronic and stable compensated congestive HF were enrolled in three dose-ascending cohorts of recombinant intravenous relaxin (10 to 960 mcg/kg/day) over 24 hours. Relaxin produced increases in cardiac index and stroke volume, and a decrease in pulmonary wedge pressure and NT-pro BNP. It improved markers of renal function, with a small rebound at the highest dose during post-infusion. […] A maximally tolerated dose was determined.
Design of Study. In this single-center, open-label study, 16 patients who fulfilled inclusion and but not exclusion criteria for chronic and stable compensated congestive HF were sequentially allocated to three ascending cohorts of intravenous (IV) relaxin. Main inclusion criteria included: Age >18 years; NYHA CHF Class II-III without restriction on etiology; left ventricular ejection fraction <35% within 6 months of enrollment; receiving established oral HF therapy expected to remain unchanged during the study period. Main exclusion criteria included: Wedge pressure <16 mmH or CI >2.5 L/min/m2; acute coronary syndrome (within 4 weeks) or recent myocardial infarction or cardiac surgery (within 6 months); AHF requiring intravenous therapy at baseline; systolic blood pressure <85 mmHg; uncorrected valvular heart disease, except for relative mitral and/or tricuspid valve insufficiency; obstructive or restrictive cardiomyopathy; recent episode of ventricular tachycardia or fibrillation (within 4 weeks); recent stroke (within 3 months); creatinine >2.0 mg/dl or serum transaminases and/or total bilirubin >2.5 times the upper limit of normal at screening visit; history of endometriosis.
The study drug was relaxin (produced by recombinant technology). Recombinant relaxin is identical to the native human hormone H2 relaxin. The dose escalation was as follows: Group A included sequential treatment for 8 hours each with dosages equivalent to 10, 30, and 100 mcg/kg/day. Group B included sequential treatment for 8 hours each with dosages equivalent to 240, 480, and 960 mcg/kg/day. Group C received 24 hours of treatment with 960 mcg/kg/day. Escalation from Group A to Group B was done after examining safety and tolerability of the doses used in Group A. Escalation from Group B to C occurred after the safety and tolerability of the highest dose in Group B (960 mcg/kg/day) was determined.
Patients were monitored in the intensive care unit for the infusion and post-infusion periods (24 hours either). Hemodynamic measurements, including CI, SVR, PCWP, SBP, RAP, and PVR, were serially performed using Swan-Ganz and arterial catheters. Likewise, clinical and laboratory monitoring was carried out serially throughout infusion and post-infusion and on Day 9 after beginning of infusion. An additional 30-day evaluation for serious adverse events was performed by phone. Endpoints included hemodynamic and neurohumoral (NT-pro BNP levels) changes from baseline, as well as monitoring of vital signs, electrocardiogram, serum chemistry, and hematology parameters throughout the study. For statistical analysis, an error probability of P<0.05 was regarded as significant. Baseline values were compared using the Kruskal-Wallis ANOVA on ranks followed by Dunn's test. Differences over time within the single groups (hemodynamics, renal parameter, and peptide levels) were analyzed with a Friedman Repeated Measures Analysis of Variance on Ranks followed by Dunn's test for comparison against the baseline.

[3] = system: systemic sclerosis patients; experiment: Clinical trials of relaxin by continuous subcutaneous infusion for six months in systemic sclerosis patients; type: in vivo, human; conditions: continuous SQ infusion for six months
Text: Clinical trials with relaxin have also been conducted on systemic sclerosis patients. 257 human subjects who suffer from systemic sclerosis, a serious fibrotic disease, have been treated with relaxin by continuous and subcutaneous (SQ) infusion for six months. […] These findings support the hypothesis that relaxin administration was associated with balanced systemic and renal vasodilation.

[4] = system: hypertensive and normotensive rats; conditions: cited from earlier work
[5] = Group C, 960 mcg/kg/d IV over 24 hours
[6] = Group C, 960 mcg/kg/d IV, 24 hr

## relaxin: Study drug produced by recombinant technology, identical to the native human hormone H2 relaxin; peptide hormone of A and B chains
[1]
  predicted creatinine clearance: sustained amelioration
Healthy volunteers
  renal blood flow: increases renal blood flow
[2]; Day 9, after doses equivalent to 960 mcg/kg/day IV
  creatinine increases post-infusion: ≤ 0.5 mg/dL
[2]; Group A, 10 mcg/kg/d IV, 8 hr
  CI Change from baseline: 0.08 ± 0.3 L/min/m2
  CO Change from baseline: 0.13 ± 0.5 L/min
  DBP Change from baseline: −3.0 ± 4.2 mmHg
  HR Change from baseline: 3.3 ± 7.6 beats/min
  PAP Change from baseline: −3.75 ± 4.1 mmHg
  PCWP Change from baseline: −1.8 ± 1.9 mmHg
  PVR Change from baseline: −17.3 ± 60.5 dynes * sec/cm5
  RAP Change from baseline: 0.8 ± 0.9 mmHg
  SBP Change from baseline: −12.5 ± 9.3 mmHg
  SVR Change from baseline: −143 ± 140 dynes * sec/cm5
[2]; Group A, 30 mcg/kg/d IV, 8 hr
  CI Change from baseline: 0.25 ± 0.4 L/min/m2
  CO Change from baseline: 0.45 ± 0.6 L/min
  DBP Change from baseline: 2.5 ± 10.9 mmHg
  HR Change from baseline: 2.3 ± 16.2 beats/min
  PAP Change from baseline: −4.0 ± 5.5 mmHg
  PCWP Change from baseline: −5.0 ± 2.6 mmHg
  PVR Change from baseline: −0.5 ± 56.7 dynes * sec/cm5
  RAP Change from baseline: −1.0 ± 1.8 mmHg
  SBP Change from baseline: −5.3 ± 16.8 mmHg
  SVR Change from baseline: −171 ± 159 dynes * sec/cm5
[2]; Group A, 100 mcg/kg/d IV, 8 hr
  CI Change from baseline: 0.25 ± 0.2 L/min/m2
  CO Change from baseline: 0.45 ± 0.2 L/min
  DBP Change from baseline: −5.0 ± 3.7 mmHg
  HR Change from baseline: 0.5 ± 1.3 beats/min
  PAP Change from baseline: −4.5 ± 4.2 mmHg
  PCWP Change from baseline: −3.5 ± 3.7 mmHg
  PVR Change from baseline: −25.3 ± 28.9 dynes * sec/cm5
  RAP Change from baseline: −0.8 ± 1.2 mmHg
  SBP Change from baseline: −13.0 ± 8.3 mmHg
  SVR Change from baseline: −288 ± 92 dynes * sec/cm5
[2]; Group B
  time course of NT-pro BNP: no change
[2]; Group B, 240 mcg/kg/d IV, 8 hr
  CI Change from baseline: 0.28 ± 0.2 L/min/m2
  CO Change from baseline: 0.62 ± 0.4 L/min
  DBP Change from baseline: 3.0 ± 6.0 mmHg
  HR Change from baseline: 1.7 ± 6.7 beats/min
  PAP Change from baseline: −1.7 ± 1.6 mmHg
  PCWP Change from baseline: −1.5 ± 1.9 mmHg
  PVR Change from baseline: −14.8 ± 16.9 dynes * sec/cm5
  RAP Change from baseline: 0.3 ± 1.4 mmHg
  SBP Change from baseline: −2.5 ± 7.4 mmHg
  SVR Change from baseline: −150 ± 138 dynes * sec/cm5
[2]; Group B, 480 mcg/kg/d IV, 8 hr
  CI Change from baseline: 0.17 ± 0.3 L/min/m2
  CO Change from baseline: 0.33 ± 0.7 L/min
  DBP Change from baseline: 0.0 ± 7.2 mmHg
  HR Change from baseline: −1.8 ± 4.5 beats/min
  PAP Change from baseline: 1.7 ± 2.7 mmHg
  PCWP Change from baseline: 0.33 ± 2.6 mmHg
  PVR Change from baseline: 5.5 ± 35.2 dynes * sec/cm5
  RAP Change from baseline: 0.5 ± 1.1 mmHg
  SBP Change from baseline: 2.2 ± 5.6 mmHg
  SVR Change from baseline: −12 ± 219 dynes * sec/cm5
[2]; Group B, 960 mcg/kg/d IV, 8 hr
  CI Change from baseline: 0.25 ± 0.3 L/min/m2
  CO Change from baseline: 0.48 ± 0.7 L/min
  DBP Change from baseline: −0.3 ± 6.8 mmHg
  HR Change from baseline: 1.8 ± 3.4 beats/min
  PAP Change from baseline: 0.3 ± 3.7 mmHg
  PCWP Change from baseline: −0.17 ± 2.7 mmHg
  PVR Change from baseline: 3.3 ± 27.5 dynes * sec/cm5
  RAP Change from baseline: 0.8 ± 1.2 mmHg
  SBP Change from baseline: −3.0 ± 5.1 mmHg
  SVR Change from baseline: −102 ± 248 dynes * sec/cm5
[2]; [5]
  absolute decreases in PCWP: approximately 4 mm Hg
  absolute increases of CI: up to 0.81 /min/m2
[2]; Group C, 960 mcg/kg/d IV, 8 hr
  CI Change from baseline: 0.43 ± 0.3 L/min/m2
  CO Change from baseline: 0.85 ± 0.5 L/min
  DBP Change from baseline: −4.8 ± 5.4 mmHg
  HR Change from baseline: 2.5 ± 4.3 beats/min
  PAP Change from baseline: −3.2 ± 3.1 mmHg
  PCWP Change from baseline: −2.5 ± 3.5 mmHg
  PVR Change from baseline: −58.5 ± 69.4 dynes * sec/cm5
  RAP Change from baseline: −1.2 ± 2.9 mmHg
  SBP Change from baseline: −1.3 ± 4.7 mmHg
  SVR Change from baseline: −255 ± 188 dynes * sec/cm5
[2]; [6]
  CI Change from baseline: 0.67 ± 0.15 L/min/m2
  CO Change from baseline: 1.25 ± 0.03 L/min
  DBP Change from baseline: −6.5 ± 7.5 mmHg
  HR Change from baseline: 0.67 ± 3.6 beats/min
  PAP Change from baseline: −5.0 ± 3.4 mmHg
  PCWP Change from baseline: −3.5 ± 3.0 mmHg
  PVR Change from baseline: −82.5 ± 55.5 dynes * sec/cm5
  RAP Change from baseline: −1.5 ± 2.7 mmHg
  SBP Change from baseline: −7.3 ± 9.5 mmHg
  SVR Change from baseline: −395 ± 217 dynes * sec/cm5
[2]; Group C, 960 mcg/kg/day IV
  drop of PVR: ~30%
[2]; Groups A and C
  time course of NT-pro BNP: significant declines
[2]; after doses equivalent to 960 mcg/kg/day IV, spontaneously resolved by Day 30
  creatinine and BUN post-infusion: increase on Day 9
[2]; all doses, 10-960 mcg/kg/day IV
  tolerability: well tolerated
[2]; all groups
  infusion-related adverse events: no infusion-related clinically significant adverse events
  symptomatic hypotension: no symptomatic hypotension was observed
[2]; all groups, 10-960 mcg/kg/d IV
  heart rate: did not change in any group
[2]; all groups, significant in groups A and C
  creatinine values during infusion: decreased
[2]; all treatment groups
  right atrial pressure: None of the treatment groups showed a significant decrease
[2]; in general, all groups
  alterations of SBP: significant alterations of SBP (FIG. 8) were not observed
[2]; throughout the study
  vital signs, ECG, serum chemistry, and hematology parameters: did not evoke any abnormalities
[2]; without physician supervision, chronic HF patients
  maximally tolerated dose (MTD) of IV relaxin: 240 to 480 µg/kg/day
[3]
  blood pressure: stable decreases in blood pressure
  predicted creatinine clearance: statistically significant increase
  serious hypotensive events: did not experience any serious hypotensive events
[4]
  CI: increase in CI
  SVR: decrease in SVR
  mean arterial pressure: without affecting mean arterial pressure

Reference: US20160287672A1, “METHOD OF TREATING CHRONIC HEART FAILURE BY ADMINISTERING RELAXIN” (priority 2008, published 2016)
